Each structure is given as a SMILES string.

The values that follow come from US20110262566A1, “NOVEL USEFUL THERAPEUTIC AGENT FOR LOWER URINARY TRACT SYMPTOM” (DAINIPPON SUMITOMO PHARMA CO., LTD., priority 2008, published 2011).

In test [1] the test system is small DRG neurons. Briefly: Test Example 2: combination effect with α1-adrenergic receptor blocker (high-K-induced rise in membrane potential, DiBAC4(3) fluorescence). The test is classed as cell-based, rat. The note with it: control 72±3%. Here is the method:
This test was performed using male SD strain rats at 6 to 7 weeks of age after birth. The animals were reared in metal cages, and allowed to take food (CE-2; CLEA Japan) and water ad libitum. Rat spinal cord was dissected under halothane anesthesia. DRG tissue was removed from the spinal cord under a stereoscopic microscope, and recovered into an ice-cooled culture dish containing DMEM. The DRG tissue was digested using 0.25% trypsin and 0.38% collagenase, and DRG neurons were isolated. The DRG neurons were seeded to a cover glass coated with Poly-L-Lysine and laminin, and cultured. On the day after the start of cultivation, the DRG neurons were loaded with 5 μM DiBAC4(3) in the presence of 5% gaseous carbon dioxide at 37° C. for 1 hour or more. Thereafter, the neurons were transferred to an assay buffer solution (pH 7.3; 10 mM HEPES, 145 mM NaCl, 5 mM KCl, 2 mM CaCl2, 1 mM MgCl2, mM Glucose), and the fluorescence intensity of each DRG neuron was measured using the image analytical system AQUACOSMOS (Hamamatsu Photonics). When small DRG neurons were selected and stimulated with 60 mM high-concentration K solution (pH 7.3; 10 mM HEPES, 90 mM NaCl, 60 mM KCl, 2 mM CaCl2, 1 mM MgCl2, 10 mM Glucose), a rise in membrane potential was observed. When the 60 mM high-concentration K solution was replaced with the assay buffer solution, the transiently-elevated membrane potential fell rapidly. […]

In test [2] the test system is small DRG neurons. Briefly: Test Example 1: action of the compound A on C-fiber activation (high-K-induced rise in membrane potential, DiBAC4(3) fluorescence). The test is classed as cell-based, rat. Conditions: compound A 3 μM pretreated between 1st and 2nd 60 mM K stimulations; control 72±3%. Here is the method: This test was performed using male SD strain rats at 6 to 7 weeks of age after birth. The animals were reared in metal cages, and allowed to take food (CE-2; CLEA Japan) and water ad libitum.
Rat spinal cord was dissected under halothane anesthesia. DRG tissue was removed from the spinal cord under a stereoscopic microscope, and recovered into an ice-cooled culture dish containing DMEM. The DRG tissue was digested using 0.25% trypsin and 0.38% collagenase, and DRG neurons were isolated. The DRG neurons were seeded to a cover glass coated with Poly-L-Lysine and laminin, and cultured.
On the day after the start of cultivation, the DRG neurons were loaded with 5 μM DiBAC4(3) in the presence of 5% gaseous carbon dioxide at 37° C. for 1 hour or more. Thereafter, the neurons were transferred to an assay buffer solution (pH 7.3; 10 mM HEPES, 145 mM NaCl, 5 mM KCl, 2 mM CaCl2, 1 mM MgCl2, mM Glucose), and the fluorescence intensity of each DRG neuron was measured using the image analytical system AQUACOSMOS (Hamamatsu Photonics).
When small DRG neurons were selected and stimulated with 60 mM high-concentration K solution (pH 7.3; 10 mM HEPES, 90 mM NaCl, 60 mM KCl, 2 mM CaCl2, 1 mM MgCl2, 10 mM Glucose), a rise in membrane potential was observed. When the 60 mM high-concentration K solution was replaced with the assay buffer solution, the transiently-elevated membrane potential fell rapidly. […]

Regarding `COc1ccccc1N1CCN(CC(O)COc2cccc3ccccc23)CC1` (stereo not drawn) [naftopidil], the “rise in membrane potential (ΔF/F), second rise relative to first rise as 100%” value with small DRG neurons [1] (naftopidil 30 μM alone, treated between 1st and 2nd 60 mM K stimulations) stood at 40±5%. As to `CCOc1ccccc1OCCN[C@H](C)Cc1ccc(OC)c(S(N)(=O)=O)c1` [tamsulosin], the “change in membrane potential” value in the test on small DRG neurons [1] (tamsulosin 0.1 μM alone, pretreatment, 60 mM K stimulation) was “nearly the same extent as with the control”. On to `O=C1Nc2ccccc2[C@H](c2ccccc2)N1C1CCN(Cc2cccc(OC(F)(F)F)c2)CC1` [compound A, (+)-3-{1-[3-(trifluoromethoxy)benzyl]piperidin-4-yl}-4-phenyl-3,4-dihydro-2(1H)-quinazolinone], for which the “rise in membrane potential (ΔF/F), second rise relative to first rise as 100%” value with small DRG neurons [2] was determined as 66±6%.
